According to article PMC7063992, “Opossum Cathelicidins Exhibit Antimicrobial Activity Against a Broad Spectrum of Pathogens Including West Nile Virus” (Frontiers in Immunology, 2020):
No end group written: not given here.

Columns and labels:
HEK293T [1] = test: Mammalian cell cytotoxicity, WST-1; format: cell-based, human; details: 24 h, WST-1, triplicate
Method: (§1) Two mammalian cell lines, including human embryonic kidney cells (HEK293T) and human breast cancer cells (MCF7) were cultured in Dulbecco’s modified Eagle’s medium (DMEM; Hyclone^TM, Logan, UT, United States) supplemented with 10% FBS (Hyclone^TM) and 1% penicillin/streptomycin (Hyclone^TM) and incubated at 37°C and 5% CO2 up to 80% confluence. Cellular adherence to the substratum was disrupted using Accutase (Innovative Cell Technologies, San Diego, CA, United States). In total, 1 × 10^4 to 4 × 10^4 cells in each well of a 96-well plate containing 8, 16, 32, and 64 μg/mL of ModoCath peptides were incubated for 24 h at 37°C and 5% CO2. Additionally, HEK293T cells were incubated in the FBS-free medium. Triton X 100 (Sigma Aldrich) was used as a positive control for complete cell lysis, and untreated cells were used as the negative control. After incubation, the medium was removed from the wells, and 10 μL of coloring solution (Cell Proliferation Reagent WST-1^TM; Sigma Aldrich) and 100 μL of DMEM (Hyclone^TM) were added to the wells in accordance with the manufacturer’s protocol. Absorbance was measured for each well at 440 nm (peptide-treated and control) and 650 nm (background) and recorded as the OD, using a microplate reader (xMark^TM spectrophotometer; Bio-Rad). Cell viability was calculated using the following equation:
(§2) (1) CellViability(%)=100×(ODpeptide-ODbackground)/(ODnegative-ODbackground)
(§3) All experiments were performed in triplicate.

MCF7 = test: Mammalian cell cytotoxicity, WST-1; format: cell-based, human; details: 24 h, WST-1, triplicate
Method: as §1, §2, §3

E. coli (ATCC 25922) = test: Serum stability: antimicrobial activity after incubation in human serum; format: in vitro ADME, Escherichia coli; details: for antimicrobial activity after incubation with human serum: 25% (v/v) pooled human serum, 37°C, activity against E. coli, OD 450 nm, triplicate; for antimicrobial activity after incubation with serum: 25% pooled human serum, 0, 60 and 120 min, Figure S6
Method: Antimicrobial peptides were dissolved in 25% (v/v) pooled human serum from five individuals, and incubated at 37°C. Aliquots were extracted in triplicate after 0, 60, and 120 min incubation, and their antimicrobial activity against E. coli (ATCC 25922) was assessed using the incubated samples, as described above.

HEK293T [2] = test: Mammalian cell cytotoxicity, WST-1, FBS-free medium; format: cell-based, human; details: HEK293T cells, mean ± SD, triplicated
Method: as §1, §2, §3

[3] = tested on: HEK293T and MCF7 cells and human primary keratinocytes; test: Cytotoxicity, summary over all tested cells; format: cell-based; details: at concentrations below 16 μg/mL
Method: as §1, with “Triton X 100 (Sigma Aldrich) was used as a positive control for complete cell lysis, and untreated cells were used as the negative control. After incubation, the medium was removed from the wells, and 10 μL of coloring solution (Cell Proliferation Reagent WST-1^TM; Sigma Aldrich) and 100 μL of DMEM (Hyclone^TM) were added to the wells in accordance with the manufacturer’s protocol.” left out, “equation: […]” for “equation:”
Primary keratinocytes were cultured in 96-well plates at 4 × 10^4 cells per well in 0.1 mL K-SFM (Invitrogen) up to 80% confluence before being treated with various concentrations of ModoCath peptides for 24 h. Cell viability was assessed using the cell proliferation kit II (XTT; Roche, Basel, Switzerland) in accordance with the manufacturer’s protocol. […]

[4] = at a higher concentration than 1x MIC

| Sequence | Cell viability ± SD (HEK293T [1]; 8 μg/mL, 37°C) [%] | Cell viability ± SD (HEK293T [1]; 16 μg/mL) [%] | Cell viability ± SD (HEK293T [1]; 32 μg/mL) [%] | Cell viability ± SD (HEK293T [1]; 64 μg/mL) [%] | Cell viability ± SD (MCF7; 8 μg/mL) [%] | Cell viability ± SD (MCF7; 16 μg/mL) [%] | Cell viability ± SD (MCF7; 32 μg/mL) [%] | Cell viability ± SD (MCF7; 64 μg/mL) [%] | antimicrobial activity after incubation with human serum (E. coli (ATCC 25922); 60 min, at >∼2× MIC) | antimicrobial activity after incubation with human serum (E. coli (ATCC 25922); 120 min) | antimicrobial activity after incubation with serum (E. coli (ATCC 25922); at 1x MIC) | antimicrobial activity after incubation with serum (E. coli (ATCC 25922); [4]) | Cell viability ± SD (%) Serum negative (HEK293T [2]; peptide 8 ㎍/㎖) [%] | Cell viability ± SD (%) Serum negative (HEK293T [2]; peptide 16 ㎍/㎖) [%] | Cell viability ± SD (%) Serum negative (HEK293T [2]; peptide 32 ㎍/㎖) [%] | Cell viability ± SD (%) Serum negative (HEK293T [2]; peptide 64 ㎍/㎖) [%] | Cell survivability [3] [%] |
| --- | --- | --- | --- | --- | --- | --- | --- | --- | --- | --- | --- | --- | --- | --- | --- | --- | --- |
| VKRTKRGARRGLTKVLKKIFGSIVKKAVSKGV [ΔModoCath1] | 108.1 ± 9.9 | 105.5 ± 6.9 | 66.9 ± 5.0 | 55.7 ± 6.2 | 91.2 ± 2.5 | 89.2 ± 0.6 | 79.1 ± 1.8 | 42.4 ± 2.1 | unaffected | decreased | highly affected | considerably stable | 109.5±9.8 | 103.7±6.9 | 69.5±7.9 | 55.9±4.4 | > 90 |
| WYQLIRTFGNLIHQKYRKLLEAYRKLRD [ΔModoCath5] | 93.7 ± 8.3 | 67.4 ± 3.1 | 47.8 ± 2.7 | 35.0 ± 0.8 | 98.4 ± 4.2 | 84.6 ± 0.6 | 28.4 ± 0.7 | 10.3 ± 2.8 | unaffected | decreased | highly affected | considerably stable | 98.6±6.5 | 63.5±5.2 | 39.3±7.6 | 34.0±1.6 |  |
| VRRSKRGIKVPSFVKKVLKDVVSESIS [ΔModoCath6] | 103.8 ± 5.0 | 95.6 ± 8.4 | 89.0 ± 13.1 | 88.8 ± 8.1 | 89.2 ± 1.4 | 93.2 ± 0.9 | 92.8 ± 1.0 | 95.2 ± 1.0 |  |  |  |  |  |  |  |  | > 90 |
